Laboratory results from patent US20090093544A1, “INSECTICIDAL COMPOSITIONS HAVING IMPROVED EFFECT” (Bayer CropScience AG, priority 2005, published 2009).

Test system: Spodoptera frugiperda
Assay: Spodoptera frugiperda test (SPODFR), spray treatment of maize plants
Type: in vivo
Conditions: 168 h, read-out: Mortality/% 7 d
Protocol: Spodoptera frugiperda—Test (SPODFR)
For the preparation of an expedient active ingredient preparation, 1 part by weight of active ingredient is mixed with the stated amounts of solvent and emulsifier, and the concentrate is diluted with emulsifier-containing water to the desired concentration. If it is necessary to add ammonium salts or ammonium salts and penetration promoter, the corresponding amount is pipetted into each of the ready preparation solution after the dilution.
Maize plants (Zea mais) are treated with the active ingredient preparation in the desired concentration by spraying and are populated with caterpillars of the fall armyworm (Spodoptera frugiperda) as long as the leaves are still moist.
After the desired time, the kill in % is determined. 100% means that all caterpillars were killed; 0% means that no caterpillars were killed.

## Cc1cc(C(F)(C(F)(F)F)C(F)(F)F)ccc1NC(=O)c1cccc(Cl)c1C(=O)N[C@@H](C)CS(C)(=O)=O [(Ib)]
  mortality at 0.192 g/ha: 70%
